Measured values published in article PMC13266999, “Designing Antibiotics with Inherent Resistance to Efflux as a Strategy to Revive Discovery against Multidrug-Resistant Pathogens” (Journal of Medicinal Chemistry, 2026).
Values after ≈ are worked out from the molar mass of the structure shown. Values joined by “and” are separate entries in the source; they are usually repeats but may differ in a detail not shown here. Identical values can stand only once. Like-named read-outs stand apart in the source and are kept apart here.

Experiments:
E. faecalis = assay: MIC (microbroth dilution); format: cell-based, Enterococcus faecalis
Protocol: (§1) All bacteria were maintained on tryptic soy agar (TSA), except Streptococcus spp., which were maintained on Columbia agar plates containing 5% horse blood. […] Bacteria were grown to stationary phase in liquid culture overnight, with shaking at 200 rpm, before being back diluted to the relevant starting concentration for each assay below. MICs were measured by the microbroth dilution method. […] Absorbance at OD600 was read on a CLARIOstar spectrophotometer (BMG Labtech) and the MIC was defined as the minimum concentration of compound where no visible growth was detected. […] MICs were also performed in the presence of the outer membrane permeator, polymyxin b nonapeptide (PMBN) following the same MIC method but with the following variation. The 2-fold dilution series of compound was prepared as above, then 50 μL of PMBN at a final concentration of 30 μg/mL was added to relevant wells, while 50 μL/well of blank media was added to the remaining wells. Bacteria were then added at 50 μL/well for a starting concentration as above. […] The MICs were read and defined as above. All animal procedures were performed by the contract research organization Pharmacology Discovery Services Taiwan in accordance with the Guide for the Care and Use of Laboratory Animals. The procedures were approved by the Institutional Ethics Committee of Pharmacology Discovery Services Taiwan, Ltd. (approval no. AB127662), in compliance with animal welfare legislation in Taiwan.

E. faecium = assay: MIC (microbroth dilution); format: cell-based, Enterococcus faecium
Protocol: (§2) All bacteria were maintained on tryptic soy agar (TSA), except Streptococcus spp., which were maintained on Columbia agar plates containing 5% horse blood. All bacterial assays were carried out in tryptic soy broth (TSB), except for Streptococcus spp. which were grown in cation-adjusted Mueller Hinton broth containing 2.5% lysed horse blood. Bacteria were grown to stationary phase in liquid culture overnight, with shaking at 200 rpm, before being back diluted to the relevant starting concentration for each assay below. MICs were measured by the microbroth dilution method. […] Absorbance at OD600 was read on a CLARIOstar spectrophotometer (BMG Labtech) and the MIC was defined as the minimum concentration of compound where no visible growth was detected. The compounds were prepared as a DMSO stock and equivalent concentrations of DMSO had no effect on bacterial growth. MICs were also performed in the presence of the outer membrane permeator, polymyxin b nonapeptide (PMBN) following the same MIC method but with the following variation. The 2-fold dilution series of compound was prepared as above, then 50 μL of PMBN at a final concentration of 30 μg/mL was added to relevant wells, while 50 μL/well of blank media was added to the remaining wells. Bacteria were then added at 50 μL/well for a starting concentration as above. Thirty μg/mL of PMBN had no effect on bacterial growth. The MICs were read and defined as above. All animal procedures were performed by the contract research organization Pharmacology Discovery Services Taiwan in accordance with the Guide for the Care and Use of Laboratory Animals. The procedures were approved by the Institutional Ethics Committee of Pharmacology Discovery Services Taiwan, Ltd. (approval no. AB127662), in compliance with animal welfare legislation in Taiwan.

S. epidermidis = assay: MIC (microbroth dilution); format: cell-based, Staphylococcus epidermidis; conditions: SE378
Protocol: as §1

S. haemolyticus = assay: MIC (microbroth dilution); format: cell-based, Staphylococcus haemolyticus; conditions: SH324
Protocol: as §2

Acinetobacter baumannii = assay: MIC (microbroth dilution); format: cell-based
Protocol: as §2

Pseudomonas aeruginosa = assay: MIC (microbroth dilution); format: cell-based
Protocol: as §2

K. pneumoniae = assay: MIC (microbroth dilution); format: cell-based, Klebsiella pneumoniae
Protocol: as §1

[1] = target: T1, GyrA S84L mutant DNA gyrase (Staphylococcus aureus, UniProt P0A0K8+P20831, S84L); assay: DNA gyrase supercoiling inhibition assay; format: biochemical, S. aureus; conditions: S84L mutant enzyme; read-out: IC50 (converted)
T1 construct: purchased Inspiralis Ltd. (Norwich, UK)
Protocol: (§3) Gyrase inhibition was determined through biochemical assay kits from Inspiralis Ltd. (Norwich, UK), according to manufacturer’s instructions, and as described previously. Briefly, 1U of enzyme was incubated with 0.5 μg of relaxed […] DNA in the presence of compound in 1% DMSO for 30 min at 37 °C. A control reaction contained no compound but still contained 1% DMSO. The reactions were stopped through Stop Buffer addition and the DNA separated through addition of chloroform/iso-amyl alcohol (24;1). Samples were run on a 1% agarose gel at 75 V for 2 h, which was then stained with 1 μg/mL ethidium bromide and visualized using a NuGenius gel imager (Syngene). The intensity of the supercoiled DNA band was quantified using Syngene software, and the inhibition of the supercoiling of the DNA by the compounds was calculated.

WT DNA gyrase = target: T2, WT DNA gyrase (Staphylococcus aureus, UniProt P0A0K8+P20831); assay: DNA gyrase supercoiling inhibition assay; format: biochemical, S. aureus; conditions: WT enzyme; read-out: IC50 (converted)
T2 construct: purchased Inspiralis Ltd. (Norwich, UK)
Protocol: as §3

S. aureus NCTC 13616 = assay: Time-kill assay; format: cell-based; conditions: 4x MIC, 24 hours
Protocol: Time-kill assays were performed as defined previously.

S. aureus = assay: Serial passaging, MIC of adapted strains; format: cell-based
Protocol: MICs were performed on the first and 10th passage.

[2] = Kinetic aqueous solubility; format: physicochemical; conditions: phosphate-buffered saline with 2% DMSO, pH 7.4, aqueous buffer, kinetic from dmso stock
Protocol: Kinetic aqueous solubility was determined using a standard LC-UV/MS-based assay. Test compounds were prepared from 10 mM DMSO stock solutions and diluted to a nominal concentration of 200 μM in phosphate-buffered saline (PBS, pH 7.4) containing 2% DMSO. Parallel dilutions in DMSO were used as reference standards. Samples were equilibrated at room temperature for 2 h with shaking, then filtered, and the filtrates were analyzed by LC-UV with mass spectrometric confirmation of the analyte peak. Solubility was determined by comparing the UV peak area of the PBS filtrate with those of the DMSO reference standards. The effective range of the assay was 10–200 μM.

[3] = Plasma protein binding (RED); format: in vitro ADME; conditions: pH 7.4
Protocol: Plasma protein binding was measured using a Rapid Equilibrium Dialysis (RED) assay. Test compounds and control compounds were added to plasma at 10 μM and dialyzed against phosphate-buffered saline (PBS, pH 7.4) for 4 h at 37 °C. […] The percentage of drug bound to plasma proteins was calculated by comparing the analyte response in the plasma compartment with that in the buffer compartment.

[4] = test system: NorA overexpressing strain NCTC 13616; assay: Reserpine growth (efflux inhibition) assay; conditions: for AUC of growth curve: biological replicates 1-3, listed as ML-77-005
Protocol: Statistical analyses were performed with GraphPad Prism V9.5.0. […] Unpaired t tests were used when comparing two samples in the gyrase assays.

`O=C(O)c1cn(C2CC2)c2cc(N3CCN(Cc4cccc5ccccc45)CC3)c(F)cc2c1=O` [Compound 8, 1-Cyclopropyl-6-fluoro-7-(4-(naphthalen-1-ylmethyl)piperazin-1-yl)-4-oxo-1,4-dihydroquinoline-3-carboxylic acid] gave an MIC (E. faecalis; EF602) of 2 µg/mL (≈ 4.24 µM), an MIC (E. faecalis; Enterococcus faecalis, NCTC775, NCTC 775, read-out: MIC) of 2 µg/mL (≈ 4.24 µM) and an MIC (E. faecalis; Enterococcus faecalis, NCTC12201, NCTC 12201, read-out: MIC) of 0.125 µg/mL (≈ 0.265 µM). It also gave an MIC (E. faecalis; Enterococcus faecalis, NCTC12204, NCTC 12204, read-out: MIC) of 2 µg/mL (≈ 4.24 µM), an MIC (E. faecalis; NCTC 775) of 2 µg/mL (≈ 4.24 µM) and an MIC (E. faecalis; NCTC 12201) of 0.5 µg/mL (≈ 1.06 µM). It also gave an MIC (E. faecium; EF205) of 2 µg/mL (≈ 4.24 µM), an MIC (E. faecium; NCTC 12204) of 2 µg/mL (≈ 4.24 µM) and an MIC (S. epidermidis) of 0.25 to 2 µg/mL. It also gave an MIC (S. haemolyticus) of 4 µg/mL (≈ 8.48 µM), an MIC (Acinetobacter baumannii; ATCC 17978, +PMBN) of 0.125 µg/mL (≈ 0.265 µM) and an MIC (Acinetobacter baumannii; AYE, +PMBN) of 32 µg/mL (≈ 67.9 µM). The MIC (Acinetobacter baumannii; Acinetobacter baumannii, ATCC17978, ATCC 17978, read-out: MIC) was 4 µg/mL (≈ 8.48 µM), the MIC (Acinetobacter baumannii; Acinetobacter baumannii, BAA1710, BAA-1710 (AYE), read-out: MIC) was over 128 µg/mL and the MIC (Pseudomonas aeruginosa; NCTC 13437) was 128 µg/mL (≈ 271 µM). For the same compound, the MIC (Pseudomonas aeruginosa; NCTC 13437, +PMBN) was 32 µg/mL (≈ 67.9 µM), the MIC (Pseudomonas aeruginosa; PAO1, + PMBN) was 0.125 µg/mL and the MIC (Pseudomonas aeruginosa; Pseudomonas aeruginosa, PAO1, read-out: MIC) was over 128 µg/mL. It also gave an MIC (K. pneumoniae; Klebsiella pneumoniae, M6, read-out: MIC) of 32 to 64 µg/mL (≈ 67.9 to 136 µM), an MIC (K. pneumoniae; Klebsiella pneumoniae, NCTC13368) of over 128 µg/mL and an MIC (K. pneumoniae; M6, +PMBN, in µg/mL) of 0.5. For the same compound, the MIC (K. pneumoniae; NCTC 13368, +PMBN, in µg/mL) was 1-2, the IC50 [1] was 94.9 µM and the IC50 (WT DNA gyrase) was over 271 µM. The time-kill profile (S. aureus NCTC 13616) was “comparable bacteriostatic profiles”, the MIC (S. aureus; ATCC 9144 4x (passaged with Compound 8)) was 2 µg/mL and the MIC (S. aureus; ATCC 9144 WT) was 0.5 µg/mL. It also gave an MIC (S. aureus; NCTC 13616 4x (passaged with Compound 8)) of 4 µg/mL, an MIC (S. aureus; NCTC 13616 WT) of 2 µg/mL and a solubility at 2 h [2] of under 5 µM. The fraction unbound at 4 h, 10 μM [3] was under 0.01, the “AUC of growth curve” value ([4]; 0.25 MIC + R (reserpine)) was 3.096 and 3.206 and 1.480 and the “AUC of growth curve” value ([4]; 0.25 MIC) was 3.117 and 3.088 and 3.115. The “AUC of growth curve” value ([4]; 0.5 MIC + R (reserpine)) was 3.021 and 2.572 and 0.9525, the “AUC of growth curve” value ([4]; 0.5 MIC) was 1.068 and 2.766 and 2.838 and the “efflux liability in reserpine assay” value ([4]; 0.5x MIC with vs without reserpine) was “not a substrate of NorA”.
